BigSolDB 2.1

O=C1C=CC(=O)N1c1ccccc1Br
solubility (mole fraction)
Conditions | 278.15 K | 283.15 K | 288.15 K | 293.15 K | 298.15 K | 303.15 K | 308.15 K | 313.15 K | 318.15 K | 323.15 K
in DMF | 0.141 | 0.163 | 0.189 | 0.219 | 0.253 | 0.284 | 0.318 | 0.363 | 0.411 | 0.473
in DMSO | – | – | – | 0.156 | 0.177 | 0.21 | 0.238 | 0.288 | 0.327 | 0.387
in NMP | 0.117 | 0.131 | 0.154 | 0.179 | 0.212 | 0.245 | 0.284 | 0.324 | 0.372 | 0.424
in acetone | 0.0947 | 0.108 | 0.125 | 0.144 | 0.164 | 0.19 | 0.223 | 0.263 | 0.306 | 0.356
in acetonitrile | 0.0291 | 0.0347 | 0.0422 | 0.0521 | 0.0621 | 0.0723 | 0.0857 | 0.103 | 0.121 | 0.139
in cyclohexane | 0.00188 | 0.00224 | 0.00275 | 0.00344 | 0.00403 | 0.00487 | 0.00597 | 0.00744 | 0.00927 | 0.0117
in ethanol | 0.0113 | 0.0134 | 0.0163 | 0.0204 | 0.0245 | 0.0287 | 0.0341 | 0.0411 | 0.0481 | 0.0556
in ethylene glycol | 0.00377 | 0.00451 | 0.0055 | 0.00661 | 0.00819 | 0.00983 | 0.0115 | 0.0134 | 0.016 | 0.0184
in isobutanol | 0.00649 | 0.00819 | 0.00989 | 0.0117 | 0.0141 | 0.0173 | 0.0204 | 0.0234 | 0.0276 | 0.0328
in isopropanol | 0.00861 | 0.0104 | 0.0126 | 0.0157 | 0.019 | 0.0221 | 0.0261 | 0.0317 | 0.0375 | 0.0429
in methanol | 0.0134 | 0.0162 | 0.0199 | 0.0249 | 0.03 | 0.0356 | 0.0421 | 0.0514 | 0.0604 | 0.0702
in n-butanol | 0.00586 | 0.00717 | 0.00848 | 0.0106 | 0.0127 | 0.0147 | 0.0172 | 0.021 | 0.0247 | 0.0284
in n-propanol | 0.00717 | 0.00866 | 0.0106 | 0.0132 | 0.016 | 0.0187 | 0.0225 | 0.0271 | 0.0323 | 0.0372
in water | 0.000175 | 0.000217 | 0.000277 | 0.000348 | 0.000443 | 0.000543 | 0.000684 | 0.000812 | 0.000979 | 0.00119
